# According to US10997871B2, “Contractile function measuring devices, systems, and methods of use thereof” (President and Fellows of Harvard College, priority 2014, dated 2021):
# What was measured:
# cardiac tissue [1] = conditions: cited from earlier work
# cardiac tissue [2] = experiment: optogenetic muscle thin film contractile assay, frequency and dose-dependent response of drug-treated tissue; type: cell-based
# Text: The system 300 can incorporate the system 290. The system 300 can be substantially similar in structure and function to the systems discussed above, except for the distinctions noted herein. Therefore, like reference numbers represent like structures. The system 300 can include a lens 152 disposed above the platform 222 and a C-mount lens 302 (e.g., a 1× lens) disposed above the lens 152. The system 300 can further include a sensor 304 (e.g., a 100 frames per second complementary metal oxide semiconductor (CMOS) camera, or the like) disposed above the lens 302. The components 152, 302, 304 can be aligned along the vertical axis 164.
# The system 300 can include mirror 306 (e.g., a mirror with an oblique angle), a filter 308 (e.g., an LP filter, such as 776LP), and a light source 310 aligned along an axis 312 substantially perpendicular to the vertical axis 164. Light imparted from the light source 310 can be directed by the mirror 306 at the tissue structures 224. The light can further be directed at the sensor 304. The system 300 provides a combination of an optogenetic tissue structure and an optical mapping system setup, including bright field microscopy for optogenetic tissue structures with the sensor 304 and red light illumination from the filter 308.
# 124 muscle thin films were tested on 15 chips or platforms using three harvests. The error bar indicates a standard error of mean and the shading indicates approximately 95% confidence limits. […] Thus, the independently paced optogenetic muscle thin films enable higher throughput assays to investigate the frequency-dependent response.
# As an example, quinidine and verapamil (both frequency-dependent) were tested for frequency and dose-dependent response in cardiac tissue. In particular, optogenetic muscle thin films in a contractile assay were used to recapitulate frequency and dose dependent mechanical responses of drug-treated tissue. In particular, FIGS. 61 and 62 show the pacing frequency, change in spontaneous beating rate frequency, change in twitch stress, and change in maximum Dt/dt for quinidine and verapamil.
Structure (SMILES),"effect on myocardial contractility (cardiac tissue [1]; when given in therapeutic doses, general statement)","1:1 coupling (cardiac tissue [2]; at a low frequency with relatively low concentration, optical pacing)","inotropic effect (twitch stress, contractility) (cardiac tissue [2]; comparison of verapamil with quinidine)",spontaneous beating rate (cardiac tissue [2]; drug-treated cardiac tissue),effect on calcium handling (cardiac tissue [1]; general statement explaining the inotropic result)
C=C[C@H]1C[N@@]2CC[C@H]1C[C@@H]2[C@@H](O)c1ccnc2ccc(OC)cc12 [quinidine],does not directly affect myocardial contractility,,,,
COc1ccc(CCN(C)CCCC(C#N)(c2ccc(OC)c(OC)c2)C(C)C)cc1OC (centres unmarked) [verapamil],,low,stronger negative inotropic effect than quinidine,increase,directly affects calcium handling
